Assay results published in patent US20240391940A1, “FUSED RING-CONTAINING COMPOUND, APPLICATION THEREOF, AND COMPOSITION CONTAINING SAME” (GenEros Biopharma Ltd., priority 2020, published 2024).

Key:
[1] = PK profile in SD rats (i.v. / oral gavage, plasma LC-MS); assay type: in vivo; details: female, rat; for Vd: read-out: Vdss
Description: (§1) Method: SD rats from acceptable sources (N=3, female, 6-8 weeks, weighing 200-230 g, purchased from JH Laboratory Animal Co. LTD, SCXK (SH) 2017-0012 20170012001153) or beagles (N=3, not experimentally naive animals, female, weighing 6.55-8.62 kg, purchased from Beijing Marshall Biotech Co. Ltd., quality inspection number SCXK (BJ) 2016-0001 110318201100068072) were selected and administered, by intravenous injection or oral gavage (3 animals per route), corresponding doses of the test compound GEN1-117 or GEN1-284s (the sample for intravenous injection was dissolved in a solution of 10% DMSO, 10% Soltol HS15 and 80% PBS, and the sample for oral administration was dissolved in a 0.5% aqueous methylcellulose solution). Peripheral blood samples (150 μL) were taken (at 0, 0.083, 0.25, 0.5, 1, 2, 4, 8 and 24 h for the intravenous injection route; at 0, 0.25, 0.5, 1, 2, 4, 8 and 24 h for the oral injection route; into K2-EDTA anticoagulant tubes; centrifuged at 2000 g at 4 C for 5 min within 15 min), and plasma was separated and subjected to LC-MS analysis (LC-MS/MS-37, triple Quad 6500) using the conventional method with diclofenac as an internal standard. Mass spectrometry conditions: ESI cation, MRM detection:
(§2) HPLC conditions: mobile phase A: 0.1% FA in water, mobile phase B: 0.1% FA in ACN
(§3) Chromatography column: Waters ACQUITY UPLC HSS T3 (2.1×50 mm, 1.8 μm)
(§4) A test sample standard curve was prepared from 1, 2, 10, 30, 100, 300, 1000, 2700 and 3000 ng/mL (50% ACN in water), and 3 μL of standard-curve solution was mixed with 57 μL of same-species blank plasma. A test plasma sample (60 μL) was well mixed with 6 μL of 10% FA in water, and 30 μL of the mixture was taken and well mixed with 200 μL of the internal standard compound diclofenac (40 ng/mL in ACN). After the resulting mixture was vortexed and shaken for 1 min and centrifuged at 5800 rpm for 10 min, 100 μL of the supernatant was transferred to a new test plate, and 1 μL of solution was loaded on an LC-MS/MS system.

[2] = PK profile in beagles (i.v. / oral gavage, plasma LC-MS); assay type: in vivo; details: female, beagle, dog, analyte = labelled compound
Description: as §1, §2, §3, §4

[3] = tested on: Apoe KO mouse atherosclerosis model; assay: Atherosclerosis model (Apoe KO mice, high-fat diet): blood lipid tests TCHO, TG, LDL-C, HDL-C; assay type: in vivo, C57BL/6 Apoe KO mice; details: Apoe KO mice, high-fat diet; GEN1-284s 60 mpk QD oral, 8 weeks
Description: (§5) Method: Apoe KO mice were tested for basal blood lipid levels and divided into a normal control group and a high-fat group. After 8 weeks of housing, the mice from the high-fat group were divided into 4 groups of about 8: a normal diet group (Chow), a high-fat diet model group (HFD), an Atorvastatin positive group (HFD+atorvastatin 5 mpk, QD), and a GEN1-284s group (284-60 mpk, QD). Oral administration was performed for 8 consecutive weeks, and the effect of the compound on the following indicators in Apoe KO mice was observed: 4 blood lipid tests (TC, TG, HDL-C and LDL-C), aortic plaque En-face staining, and pathological oil red staining of the cardiac outflow tract.
(§6) Mice from the groups except for the normal diet control group (Chow) were fed with high-fat feed every day for […]. From week 9, each group was orally administered solvent or a corresponding test compound, and body weight data were recorded every day for 8 consecutive weeks. After the first 8 weeks' high-fat diet, blood samples were taken and centrifuged to separate serum, and the serum was tested for blood lipid levels (TCHO, TG, LDL-C and HDL-C). The mice were randomly grouped according to the TCHO results and body weight. During the subsequent 8 weeks of administration, blood lipid tests (TCHO, TG, LDL-C and HDL-C) were run once every 4 weeks.
Mice were fasted overnight, and blood (150 μL) was collected via mandibular blood sampling or eye ball removal (for endpoint only) and left at room temperature for 2 h. The blood was centrifuged at 4° C. at 7000 rpm for 10 min, and serum was pipetted, quick-frozen in dry ice and then stored at −80° C. before analysis. The serum was tested for the biochemical indicators TCHO, TG, LDL-C and HDL-C using kits and a microplate reader.

[4] = tested on: Apoe KO mouse atherosclerosis model; assay: Atherosclerosis model: plaques in the cardiac (left ventricular) outflow tract; assay type: in vivo, C57BL/6 Apoe KO mice; details: Apoe KO mice, high-fat diet; GEN1-284s 60 mpk QD oral
Description: as §5, §6
Mouse heart samples were fixed overnight in 4% paraformaldehyde solution and dehydrated in sucrose solution. Then, the samples were embedded with OCT (Sakura, Japan) under a stereo microscope and made into 10 μm frozen sections. The sections were stained with oil red ORO and then subjected to routine pathological examinations. Images of the outflow tract were acquired under an optical microscope at 4× magnification, and high-quality morphological observations were carried out using an eyepiece with 20× magnification. The percentage of intimal lesions in the cardiac outflow tract was calculated. The detection criteria followed the criteria for histological classification of human atherosclerotic disease, which are described in detail below:
The area of plaques in the left ventricular outflow tract was measured using a microscope, and the proportion of plaques in the left ventricular outflow tract was calculated; this value reflects the degree of stenosis in the cardiac outflow tract vessel.

[5] = iv, 1 mg/kg, GEN1-117 dosed i.v. 1 mg/kg
[6] = iv, 1 mg/kg, GEN1-284s dosed i.v. 1 mg/kg, analyte = labelled compound
[7] = iv, GEN1-117 dosed i.v. 1 mg/kg
[8] = po, 10 mg/kg, GEN1-117 dosed p.o. 10 mg/kg
[9] = po, 10 mg/kg, GEN1-284s dosed p.o. 10 mg/kg, analyte = labelled compound
[10] = po, GEN1-284s dosed p.o. 10 mg/kg, analyte = labelled compound
[11] = iv, GEN1-284s dosed i.v. 0.5 mg/kg
[12] = po, GEN1-284s dosed p.o. 5 mg/kg
[13] = iv, GEN1-284s dosed i.v. 1 mg/kg, analyte = labelled compound

SMILES: O=C(Cc1ccc2ncccc2c1)N1CCC(n2c(=O)[nH]c3cccc(C(F)(F)F)c32)CC1 [GEN1-117, 1-(1-(2-(Quinolin-6-yl)acetyl)piperidin-4-yl)-7-(trifluoromethyl)-1H-benzo[d]imidazol-2(3H)-one]
- AUC(0-t) [1, 5]: 1640 ng·h/mL
- half-life [1, 5]: 4.2 h
- AUC(0-t) [1, 6]: 1510 ng·h/mL
- half-life [1, 6]: 4.16 h
- clearance [1, 7]: 10.3 mL/min/kg
- Vd [1, 7]: 2.75 L/kg
- bioavailability ([1]; oral, GEN1-117 dosed p.o. 10 mg/kg vs i.v. 1 mg/kg): 2.6%
- AUC(0-t) [1, 8]: 423 ng·h/mL
- Cmax [1, 8]: 42.8 ng/mL
- Tmax [1, 8]: 4 h
- half-life [1, 8]: 4.28 h
- AUC(0-t) [1, 9]: 14600 ng·h/mL
- Cmax [1, 9]: 2440 ng/mL
- Tmax [1, 9]: 2 h
- half-life [1, 9]: 3.82 h
- bioavailability [1, 10]: 96.3%
- AUC(0-t) [2, 11]: 2000 ng·h/mL
- half-life [2, 11]: 4.06 h
- AUC(0-t) [2, 12]: 17900 ng·h/mL
- Cmax [2, 12]: 2770 ng/mL
- Tmax [2, 12]: 1.33 h
- bioavailability [2, 12]: 89.8%
- half-life [2, 12]: 4.18 h

SMILES: O=C(Cc1ccc2ncccc2c1)N1CCC(n2c(=O)n(COP(=O)([O-])[O-])c3cccc(C(F)(F)F)c32)CC1.[Na+].[Na+] [GEN1-284 salt, (2-Oxo-3-(1-(2-(quinolin-6-yl)acetyl)piperidin-4-yl)-4-(trifluoromethyl)-2,3-dihydro-1H-benzo[d]imidazol-1-yl)methyl disodium phosphate]
- AUC(0-t) [1, 13]: 2750 ng·h/mL
- clearance [1, 13]: 6.23 mL/min/kg
- half-life [1, 13]: 0.39 h
- Vd [1, 13]: 0.047 L/kg
- Tmax [1, 9]: 0.42 h
- AUC(0-t) [1, 10]: 5.72 ng·h/mL
- Cmax [1, 10]: 6.04 ng/mL
- half-life [1, 10]: 0.95 h
- AUC(0-t) [2, 11]: 207 ng·h/mL
- clearance [2, 11]: 43.5 mL/min/kg
- half-life [2, 11]: 0.085 h
- Vd ([2]; iv, GEN1-284s dosed i.v. 0.5 mg/kg, read-out: Vdss): 0.155 L/kg
- Effect on dyslipidemia (TCHO, TG, HDL-C and LDL-C) [3]: partially ameliorate dyslipidemia
- Left ventricular outflow tract plaques [4]: a certain ameliorating effect on outflow tract plaques
